Conditions: human, in vivo
Experimental: Specifically, subjects (n=15) received 8 g of gluten after at least 8 hours of fasting, following a gluten-free diet for at least 36 hours in individuals without diagnosed celiac disease. The gluten consisted of gluten powder with flavorings (sweeteners and food colorings) contained in single-use heat-sealed sachets. At the same time, volunteers took 1 g of mannitol and 10 g of lactulose. Subsequently, the various urines were collected in separate containers, to be able to perform individualized measurements of the concentration in each void, as well as the total volume of the urines. The amount of gluten peptides present in urine excreted for 15 hours following gluten intake was determined using the iVYCHECK urine product and a calibrated lateral flow strip reader iVYCHECK Reader (Biomedal, Spain). […]
In this example conducted with 15 volunteers without symptoms of diagnosed digestive disease, basal urine is analyzed. […] The concentrations of GIP in the excreted urines were measured, both by ELISA and LFIA between 0-6 h after intake and between 2-15 h after intake individually. The GIP concentration of each urine of each volunteer (FIG. 4) and lactulose (FIG. 5) were measured, and subsequently, the % excreted relative to the ingested GIP and the lactulose/mannitol ratio (FIG. 6) were calculated. The correlation between lactulose: mannitol and GIP was determined. […]

Compound | share of detectable gluten excreted in the first 9 to 15 hours [%] | time over which lactulose excretion occurs [h]
gluten | > 80 | 
OC[C@H]1O[C@@H](O[C@@H]2[C@@H](CO)OC(O)(CO)[C@H]2O)[C@H](O)[C@@H](O)[C@H]1O (mixture of isomers) [lactulose] |  | > 15

Reference: US20260276634A1, “METHOD FOR DETERMINING INTESTINAL PERMEABILITY” (BIOMEDAL, SL, priority 2023, published 2026)
